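Five compound concentrations were applied to cells in 96-well plates for 48 hours; endpoints were derived by simple linear interpolation of the resulting dose-response curve. GI50 = concentration required for 50% inhibition of growth.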 Calls of active or inactive are those of the source. Rule as the data show it: active = GI50 up to about 1.1 µM and inactive = higher.
Key:
Test in all cases: DTP human tumour cell line panel, 48 h
PC-3 = test system: PC-3
NCI-H460 = test system: NCI-H460
TK-10 = test system: TK-10
SF-268 = test system: SF-268
MCF7 = test system: MCF7
LOX IMVI = test system: LOX IMVI
HCC 2998 = test system: HCC 2998
NCI-H522 = test system: NCI-H522
UO-31 = test system: UO-31
RXF 393 = test system: RXF 393
DMS-273 = test system: DMS-273
NCI-H23 = test system: NCI-H23
SK-MEL-28 = test system: SK-MEL-28
OVCAR-5 = test system: OVCAR-5
CAKI-1 = test system: CAKI-1
UACC-257 = test system: UACC-257
SN12C = test system: SN12C
OVCAR-4 = test system: OVCAR-4
SK-MEL-5 = test system: SK-MEL-5
KM12 = test system: KM12

SMILES: CCc1c(CNc2ccc(C(=O)NC(CC(=O)O)C(=O)O)cc2)ccc2nc(N)nc(N)c12 (configuration not stated)
- GI50 (PC-3): 305 µM (inactive)
- GI50 (NCI-H460): < 0.0158 µM (active)
- GI50 (TK-10): 15.3 µM (inactive)
- GI50 (SF-268): < 0.0198 µM (active)
- GI50 (MCF7): < 0.0182 µM (active)
- GI50 (LOX IMVI): < 0.0162 µM (active)
- GI50 (HCC 2998): 0.0465 µM (active)
- GI50 (NCI-H522): 0.914 µM (active)
- GI50 (UO-31): 0.75 µM (active)
- GI50 (RXF 393): > 4.65 µM (inactive)
- GI50 (DMS-273): < 0.0202 µM (active)
- GI50 (NCI-H23): < 0.0291 µM (active)
- GI50 (SK-MEL-28): 10.2 µM (inactive)
- GI50 (OVCAR-5): 1.82 µM (inactive)
- GI50 (CAKI-1): < 0.0198 µM (active)
- GI50 (UACC-257): 5.19 µM (inactive)
- GI50 (SN12C): < 0.0288 µM (active)
- GI50 (OVCAR-4): > 48.8 µM (inactive)
- GI50 (SK-MEL-5): < 0.0346 µM (active)

SMILES: O=C1CCCCCCCCCCOC(=O)CCCCCCCCCCO1
- GI50 (NCI-H460): > 100 µM (inactive)
- GI50 (TK-10): > 100 µM (inactive)
- GI50 (SF-268): > 100 µM (inactive)
- GI50 (LOX IMVI): > 100 µM (inactive)
- GI50 (HCC 2998): > 100 µM (inactive)
- GI50 (NCI-H522): > 100 µM (inactive)
- GI50 (UO-31): > 100 µM (inactive)
- GI50 (RXF 393): > 100 µM (inactive)
- GI50 (DMS-273): > 100 µM (inactive)
- GI50 (NCI-H23): > 100 µM (inactive)
- GI50 (SK-MEL-28): > 100 µM (inactive)
- GI50 (OVCAR-5): > 100 µM (inactive)
- GI50 (CAKI-1): > 100 µM (inactive)
- GI50 (UACC-257): > 100 µM (inactive)
- GI50 (KM12): > 100 µM (inactive)
- GI50 (SN12C): > 100 µM (inactive)
- GI50 (OVCAR-4): > 100 µM (inactive)
- GI50 (SK-MEL-5): > 100 µM (inactive)

SMILES: CCCCCCCCCCCCCCCCOP(=O)([O-])OCC[N+](C)(C)C [MILTEFOSINE]
- GI50 (PC-3): 1.56 µM (inactive)
- GI50 (NCI-H460): 6 µM (inactive)
- GI50 (TK-10): 2.1 µM (inactive)
- GI50 (SF-268): 22.1 µM (inactive)
- GI50 (MCF7): 24.9 µM (inactive)
- GI50 (LOX IMVI): 21.5 µM (inactive)
- GI50 (HCC 2998): 5.38 µM (inactive)
- GI50 (NCI-H522): 16.4 µM (inactive)
- GI50 (UO-31): 20.6 µM (inactive)
- GI50 (RXF 393): 5.9 µM (inactive)
- GI50 (DMS-273): 6.92 µM (inactive)
- GI50 (NCI-H23): 33.3 µM (inactive)
- GI50 (SK-MEL-28): 27.9 µM (inactive)
- GI50 (OVCAR-5): 8.17 µM (inactive)
- GI50 (CAKI-1): 10.3 µM (inactive)
- GI50 (UACC-257): 30.6 µM (inactive)
- GI50 (KM12): 2.74 µM (inactive)
- GI50 (SN12C): 16.1 µM (inactive)
- GI50 (OVCAR-4): 18.2 µM (inactive)
- GI50 (SK-MEL-5): 23.8 µM (inactive)

From ChEMBL document CHEMBL1201862, “PubChem BioAssay data set” (2004)
